According to PMC5646861 (PLoS ONE, 2017):

Assays:
[1] = target: T1, SMO-1 (Caenorhabditis elegans, UniProt P55853); assay: NMR titration (15N-HSQC chemical shift perturbation) of SMO-1 with SIM peptides; type: binding; design: inferred from pET15b vector with NdeI/BamHI and Ni-NTA purification) (N); made in house; host or cells: E. coli BL21(DE3)
[2] = target: T1, SMO-1; assay: In vitro SMO-1 conjugation assay with FITC-labelled synthetic peptide substrate (human Aos1/Uba2 E1, human Ubc9 E2); type: biochemical, C. elegans; design: inferred from pET15b vector with NdeI/BamHI and Ni-NTA purification) (N); made in house; details: 10mM of peptide, 50 μM SMO-1 or SUMO1, 1 μM E1, 2.5 μM E2, 1 mM ATP, 4°C, 12 hours, 20 mM Tris-Cl pH 8.5, 250 mM NaCl, 5 mM MgCl2, 0.1% v/v Tween 20; SDS-PAGE, FITC fluorescence 519 nm
Protocol: A synthetic peptide, sequence–[…] with Fluorescein iso-thiocyanate (FITC) label at the N-terminus was used as substrate. […] Reaction was carried out at 4°C for 12 hours. The reaction was started by adding 1 mM ATP. Reaction buffer contained 20 mM Tris-Cl pH 8.5, 250 mM NaCl, 5 mM MgCl2, 0.1% v/v Tween 20. […] Reaction buffer was the same as above. The reaction was carried out at 37°C for 4 hours. All reactions were stopped by adding reducing SDS loading dye. Reaction samples were run on 12% w/v SDS PAGE and analysed by probing FITC fluorescence at 519 nm wavelength (excitation wavelength– 495 nm).
To assess the ability of SMO-1 to be conjugated and deconjugated to substrates we developed an in vitro assay. […] As a substrate we used a synthetic peptide harbouring two consensus SUMOylation sites found in the IE2 protein (Fig 6A). To facilitate detection of SUMOylated peptide on SDS-PAGE gels we labelled the peptide with Fluorescein iso-thiocyanate (FITC) fluorophore. […] To verify, we carried out an in-vitro reaction with FITC tagged SMO-1.
(A) Sequence of FITC fluorophore labelled peptide used as substrate in in vitro SUMOylation assays. The lysines competent for SUMOylation are in bigger font and in bold face. All subsequent images were obtained by observing FITC fluorescence at 519 nm unless otherwise mentioned. […] The SDS-PAGE gel is imaged by observing YFP fluorescence. […]
Target sequence in this assay (P55853 1-90): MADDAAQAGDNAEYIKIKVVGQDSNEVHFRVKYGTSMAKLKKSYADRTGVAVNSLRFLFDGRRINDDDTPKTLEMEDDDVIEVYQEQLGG
Target sequence in this assay (P63279 whole entry, further chain): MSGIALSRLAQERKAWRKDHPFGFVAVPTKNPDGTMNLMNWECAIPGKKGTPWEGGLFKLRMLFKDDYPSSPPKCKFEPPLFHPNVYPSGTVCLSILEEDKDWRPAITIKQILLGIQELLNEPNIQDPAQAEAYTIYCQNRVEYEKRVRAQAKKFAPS

[3] = system: substrate-polySMO-1 conjugates; assay: In vitro SMO-1 deconjugation assay with SENP2 on SMO-1 chains from the peptide; type: biochemical; details: 10μM SENP2 (human), same reaction mix as conjugation, 25°C, 2–3 hours; SDS-PAGE, FITC fluorescence
Protocol: (§1) Deconjugation Assays were performed by adding 10μM SENP2 to poly-SUMO1/2 and poly-SMO-1 chains in the same reaction mix used for conjugation. Deconjugation reaction was carried out at 25°C for 2–3 hours. Reactions were stopped by adding reducing SDS loading dye. Reaction samples were run on 12% w/v SDS PAGE and analysed by probing FITC fluorescence at 519 nm wavelength (excitation wavelength– 495 nm). SMO-1-YFP was checked for deconjugation in 50mM Tris-Cl pH 7.5 @ 25°C, 150mM NaCl, 1mM DTT reaction buffer. SENP2 was mixed with SMO-1-YFP and incubated at temperatures from 25–37°C for 6 hours. The reaction mix were then run separately on two SDS-PAGE gels for imaging using fluorescence and for staining with Coomassie Brilliant Blue R-250 Dye.
(§2) DeSUMOylation enzymes can cleave SUMO chains, making the process reversible to enable another level of control over the SUMOylation process.

[4] = system: SMO-1-YFP; assay: De-conjugation (maturation) assay of SMO-1-YFP with SENP2; type: biochemical, C. elegans; details: 50mM Tris-Cl pH 7.5 @ 25°C, 150mM NaCl, 1mM DTT; 25–37°C, 6 hours; SDS-PAGE, YFP fluorescence and Coomassie
Protocol: as §1, §2

Molecule: CC[C@H](C)[C@H](NC(=O)[C@H](CS)NC(=O)CNC(=O)[C@H](C)NC(=O)[C@@H](NC(=O)[C@@H](N)CC(=O)O)[C@@H](C)O)C(=O)N[C@H](C(=O)N[C@H](C(=O)N[C@@H](CO)C(=O)N[C@@H](CC(=O)O)C(=O)N[C@@H](CO)C(=O)N[C@@H](CCC(=O)O)C(=O)N[C@@H](CCC(=O)O)C(=O)N[C@@H](CCC(=O)O)C(=O)N[C@@H](CCC(N)=O)C(=O)NCC(=O)N[C@@H](CCC(=O)O)C(=O)N[C@@H](CCC(=O)O)C(=O)N[C@@H](Cc1c[nH]c2ccccc12)C(=O)O)[C@@H](C)CC)C(C)C [IE2-SIM]
- Kd [1]: 108 µM

Molecule: PLIKQEDIKPEPDFTIQYRNKIIDTAGCIVISDSEEE [synthetic peptide, synthetic peptide harbouring two consensus SUMOylation sites found in the IE2 protein]
- SMO-1 conjugation on the substrate [2]: Rapid SMO-1 conjugation was observed on the substrate

B1: SENP2: human deSUMOylation enzyme (protein, UniProt Q9HC62 1-589, looked up)
Sentrin-specific protease 2: MYRWLVRILGTIFRFCDRSVPPARALLKRRRSDSTLFSTVDTDEIPAKRPRLDCFIHQVKNSLYNAASLFGFPFQLTTKPMVTSACNGTRNVAPSGEVFSNSSSCELTGSGSWNNMLKLGNKSPNGISDYPKIRVTVTRDQPRRVLPSFGFTLNSEGCNRRPGGRRHSKGNPESSLMWKPQEQAVTEMISEESGKGLRRPHCTVEEGVQKEEREKYRKLLERLKESGHGNSVCPVTSNYHSSQRSQMDTLKTKGWGEEQNHGVKTTQFVPKQYRLVETRGPLCSLRSEKRCSKGKITDTETMVGIRFENESRRGYQLEPDLSEEVSARLRLGSGSNGLLRRKVSIIETKEKNCSGKERDRRTDDLLELTEDMEKEISNALGHGPQDEILSSAFKLRITRGDIQTLKNYHWLNDEVINFYMNLLVERNKKQGYPALHVFSTFFYPKLKSGGYQAVKRWTKGVNLFEQEIILVPIHRKVHWSLVVIDLRKKCLKYLDSMGQKGHRICEILLQYLQDESKTKRNSDLNLLEWTHHSMKPHEIPQQLNGSDCGMFTCKYADYISRDKPITFTQHQMPLFRKKMVWEILHQQLL
- cleavage of SMO-1 chains from peptide by SENP2 [3]: could efficiently edit the SMO-1 chains from the peptide
- cleavage of SMO-1 from SMO-1-YFP by SENP2 [4]: could cleave SMO-1 from SMO-1-YFP
